The values below come from patent US8524909B2, “Tetrahydro-pyran derivatives” (Hoffmann-La Roche Inc., priority 2010, dated 2013).

Chain of mGlyT-1b (P28571 other isoform, or with tags, fused parts or gaps isoform P28571-2): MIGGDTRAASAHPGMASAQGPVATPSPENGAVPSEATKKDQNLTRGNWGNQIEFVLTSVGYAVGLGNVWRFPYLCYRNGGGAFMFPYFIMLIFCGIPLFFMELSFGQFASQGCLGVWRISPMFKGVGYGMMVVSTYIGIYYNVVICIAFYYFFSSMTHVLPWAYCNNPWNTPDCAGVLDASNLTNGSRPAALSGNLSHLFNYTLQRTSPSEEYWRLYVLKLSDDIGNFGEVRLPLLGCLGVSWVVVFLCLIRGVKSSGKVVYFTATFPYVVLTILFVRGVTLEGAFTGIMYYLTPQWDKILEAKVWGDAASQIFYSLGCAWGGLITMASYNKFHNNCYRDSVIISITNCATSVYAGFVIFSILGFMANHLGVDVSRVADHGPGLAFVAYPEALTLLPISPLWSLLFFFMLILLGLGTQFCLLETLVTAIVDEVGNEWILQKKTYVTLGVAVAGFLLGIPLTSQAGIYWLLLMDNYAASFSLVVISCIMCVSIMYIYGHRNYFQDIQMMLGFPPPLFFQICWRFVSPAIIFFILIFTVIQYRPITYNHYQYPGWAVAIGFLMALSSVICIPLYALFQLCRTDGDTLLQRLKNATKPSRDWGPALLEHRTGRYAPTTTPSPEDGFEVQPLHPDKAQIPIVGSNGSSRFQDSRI

The target in the assay is mGlyT-1b (Mus musculus (Mouse), UniProt P28571). In words: Glycine Uptake Inhibition Assay (mGlyT-1b). In kind it is cell-based. Particulars: [3H]-glycine uptake in Flp-in-CHO cells stably transfected with mGlyT1b cDNA; 20 min preincubation at 22° C. On the procedure:
DMEM complete medium: Nutrient mixture F-12 (Gibco Life-technologies), fetal bovine serum (FBS) 5%, (Gibco life technologies), Penicillin/Streptomycin 1% (Gibco life technologies), Hygromycin 0.6 mg/ml (Gibco life technologies), Glutamine 1 mM Gibco life technologies)
Uptake buffer (UB): 150 mM NaCl, 10 mM Hepes-Tris, pH 7.4, 1 mM CaCl2, 2.5 mM KCl, 2.5 mM MgSO4, 10 mM (+) D-glucose.
Flp-in™-CHO (Invitrogen Cat no R758-07) cells stably transfected with mGlyT1b cDNA.
Glycine Uptake Inhibition Assay (mGlyT-1b)
On day 1 mammalian cells, (Flp-in™-CHO), transfected with mGlyT-1b cDNA, were plated at the density of 40,000 cells/well in complete F-12 medium, without hygromycin in 96-well culture plates. On day 2, the medium was aspirated and the cells were washed twice with uptake buffer (UB). The cells were then incubated for 20 min at 22° C. with either (i) no potential competitor, (ii) 10 mM non-radioactive glycine, (iii) a concentration of a potential inhibitor. A range of concentrations of the potential inhibitor was used to generate data for calculating the concentration of inhibitor resulting in 50% of the effect (e.g. IC50, the concentration of the competitor inhibiting glycine uptake of 50%). A solution was then immediately added containing [^3H]-glycine 60 nM (11-16 Ci/mmol) and 25 μM non-radioactive glycine. The plates were incubated with gentle shaking and the reaction was stopped by aspiration of the mixture and washing (three times) with ice-cold UB. The cells were lysed with scintillation liquid, shaken 3 hours and the radioactivity in the cells was counted using a scintillation counter.
In turn, `CCc1cc(C(F)(F)F)cc(OC)c1C(=O)N[C@H]1COCC[C@@H]1N1CCCC1` [Example 55] returned an IC50 of 48.3 nM.
The figure for `CCc1cc(C(F)(F)F)cc(OC)c1C(=O)N[C@@H]1COCC[C@H]1N1CCCC1` [Example 56, (−)-2-Ethyl-6-methoxy-N-(4-pyrrolidin-1-yl-tetrahydro-pyran-3-yl)-4-trifluoro-methyl-benzamide] is 15.5 nM; for `COc1cc(C(F)(F)F)cc(C2CC2)c1C(=O)N[C@H]1COCC[C@@H]1N1CCCC1` [Example 57] it is 62.5 nM.
The figure for `COc1cc(C(F)(F)F)cc(C2CC2)c1C(=O)N[C@@H]1COCC[C@H]1N1CCCC1` [Example 58] is 7.6 nM.
Under `COc1cc(C(F)(F)F)cc(SC)c1C(=O)N[C@H]1CCOC[C@H]1N1CCCC1` [Example 64, (−)-2-Methoxy-6-methylsulfanyl-N-(3-pyrrolidin-1-yl-tetrahydro-pyran-4-yl)-4-trifluoro-methyl-benzamide] stands 189 nM.
Regarding `COc1cc(C(F)(F)F)cc(SC)c1C(=O)N[C@@H]1CCOC[C@@H]1N1CCCC1` [Example 65, (+)-2-Methoxy-6-methylsulfanyl-N-(3-pyrrolidin-1-yl-tetrahydro-pyran-4-yl)-4-trifluoro-methyl-benzamide], the IC50 turned out to be 119 nM. Compared with the last compound, the IC50 is about 1.6-fold lower.
